Laboratory results taken from patent US20160264616A1, “THERAPEUTIC COMPOUNDS AND METHODS” (priority 2015, published 2016).
Like-named read-outs stand apart in the source and are kept apart here.

Key:
RGS4 = RGS4 (Homo sapiens, UniProt P49798); test: Selectivity versus RGS4; assay type: biochemical
Protocol: Characterization of UI-5, UI-1590 and UI-1956 to determine mechanism of action focused initially on the determination of the potential irreversible modification of the RGS protein by the compounds. […] These compounds were tested for selectivity versus RGS4 which was chosen as a model protein due to its high level of sensitivity to thiol modification (18).

[1] = target: T1, RGS17-accelerated Gαo GTPase activity (Homo sapiens, UniProt Q9UGC6); test: Malachite green steady-state GTPase assay (RGS17 GAP activity); assay type: biochemical
T1 construct: This is the same RGS17 construct used in the high throughput screening campaign that is fully active despite the N-terminal truncation; made in house
T1 sequence (Q9UGC6 72-206 limits assumed): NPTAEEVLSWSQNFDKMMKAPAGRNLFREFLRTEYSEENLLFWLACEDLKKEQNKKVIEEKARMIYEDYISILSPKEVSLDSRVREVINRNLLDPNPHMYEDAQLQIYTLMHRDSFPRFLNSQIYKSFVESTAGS
Protocol: Next, the ability of the compounds to inhibit the “GAP” activity of RGS17 was examined. The compounds were tested using a previously described malachite green assay (18), which allows for the detection of free phosphate liberated during the enzymatic cleavage of GTP to GDP by G alpha subunits.
First, stock solutions of each of the 3 components of the developing solution were prepared according to Monroy et al (18). In brief, Compounds were seeded using a half-log dilution with the highest final concentration of compound at 100 μM down to 1 nM. […] A 4×GTP at 1.2 mM diluted in MGB, was used, with a final concentration of 300 μM. To terminate the reaction, 10 μL of a Developing Solution (DS) was 50:12.5:1 (malachite:molybdate:Tween-20) was added to each well using a Microlab Star liquid handling robot (Hamilton Robotics; Reno, Nev.), this achieved a final ratio 4:1 (sample:developing solution) absorbance was read at 642 nm.

RGS17 = target: T2, RGS17 (Homo sapiens, UniProt Q9UGC6); test: MALDI-TOF mass spectrometry for covalent adducts; conditions: two-fold molar excess of compound, one hour
T2 construct: This is the same RGS17 construct used in the high throughput screening campaign that is fully active despite the N-terminal truncation; made in house
T2 sequence (Q9UGC6 84-200 limits assumed): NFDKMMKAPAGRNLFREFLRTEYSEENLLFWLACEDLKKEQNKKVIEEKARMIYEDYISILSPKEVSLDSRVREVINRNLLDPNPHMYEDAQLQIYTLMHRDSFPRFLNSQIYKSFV
Protocol: Matrix-assisted laser desorption ionization time of flight (MALDI-TOF) mass spectrometry was employed to evaluate if lead compounds were capable of covalently modifying RGS17's RGS homology domain. Covalent adducts on RGS17 were not detected with any compounds using two-fold molar excess of compound when incubated for one hour with RGS17ΔN (FIG. 8). For all samples, the only species that were observed were singly and doubly charged unmodified, intact protein with mass-to-charge ratios of […], respectively.
Following treatment with compound, buffer was exchanged for 25 mM ammonium bicarbonate using an Amicon Ultra 10K 0.5 mL centrifugal filtration device (Millipore, Billerica, Mass.). Intact protein molecular weight was then assessed by matrix-assisted laser desorption/ionization-time of flight (MALDI-TOF) mass spectrometry. This was accomplished using a Bruker ultrafleXtreme in the linear TOF mode, employing 384-well Anchor chip targets (Billerica, Mass.). MALDI matrix reagents sinapinic acid and alpha-Cyano-4-hydroxycinnamic acid, purchased from Bruker, were reconstituted to 5 mg/ml in a 1:1 solution of acetonitrile and aqueous 0.1% formic acid (Billerica, Mass.). Samples in ammonium bicarbonate were diluted to 5 μM in aqueous 0.1% formic acid and introduced to target as a 1:1 solution of protein sample to MALDI matrix buffer. After crystal drying, samples were desalted on the target plate using aqueous 0.1% TFA. The laser was configured to emit pulses at 200 Hz at an optimal wavelength of 355 nm, and input energy of 500 μJ/pulse was attenuated 80-90%. Mass scale was calibrated using horse heart myoglobin, and 2000 shots were acquired per spectra.

[2] = system: RGS17ΔN:Gαo interaction in HEK293T cells; test: RGS localization assay, GFP-RGS17ΔN co-transfected with hGαo in HEK293T cells; assay type: cell-based, human
Protocol: HEK293T cells co-transfected with GFP-RGS17FL and human Gαo were treated with UI-5, UI-1590 and […] to determine if the compounds could disrupt the RGS17:Gαo interaction that could drive RGS17 to the membrane. […] To test this hypothesis, we constructed a GFP-RGS17 fusion protein with an N-terminal truncation, removing the cysteine-rich motif. […] As a negative control, we tested a known RGS4 inhibitor (CCG-50014) in this assay against RGS17ΔN (21). […] Finally, to ensure the localization was not due to the GFP tag, pAcGFP vector was co-transfected into HEK293T cells with hGαo. […] Cross-sectional fluorescence intensity analysis was used to quantify the intensity of signal at a cross section of the cell. Average signal at the membrane and in the cytoplasm were calculated and change in signal intensity was assessed between time zero and time final. […] Additionally, the control condition of CCG-50014 was subject to the same analyses as the lead compound.
Twenty four (24) hours prior to plating, assay plates were coated with 30 μl poly-D-lysine per well. Human Embryonic Kidney 293T cells (HEK293T) were plated in to 96 well tissue culture treated glass bottom view plates (Perkin Elmer, Part No. 6005430) at a density of 25K cells per well. 24 hours post seeding, cells were transfected with hGαo in pCDNA 3.1(+), pAcGFPRGS17 FL, pAcGFP RGS17ΔN, empty pAcGFP, hGαo+pAcGFPRGS17 FL, hGαo+pAcGFP RGS17ΔN, or hGαo+empty pAcGFP vector using Lipofectamine 2000 (Life Technologies) as the transfection reagent and according to manufacture protocols. 24 hours post transfection, cell media was removed and replaced with […] serum free, phenol red free DMEM (Life Technologies, Ref No. 31053-028). Cells were then imaged using a Zeiss LSM510 confocal microscope (University of Iowa Central Microscopy Core). Images were analyzed using NIH Image J software and Graphpad Prism 6.
Compounds at 2× final desired concentrations were diluted in serum free, phenol red free DMEM.

[3] = malachite green, n=3, read-out: IC50 for inhibition of RGS17 GAP activity

Chain of RGS4 (P49798 whole entry, species assumed): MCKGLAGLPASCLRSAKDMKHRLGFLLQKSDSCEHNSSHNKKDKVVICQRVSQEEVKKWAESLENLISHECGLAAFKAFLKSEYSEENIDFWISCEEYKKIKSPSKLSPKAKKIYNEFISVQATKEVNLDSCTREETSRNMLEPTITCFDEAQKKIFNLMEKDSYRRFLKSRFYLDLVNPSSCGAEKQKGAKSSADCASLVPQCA

| Structure (SMILES) | inhibition of RGS4 (RGS4) | selectivity RGS17 versus RGS4 (RGS4) | IC50 [1, 3] [µM] | covalent adducts on RGS17 (RGS17) | delocalization / cellular activity ([2]; 10 μM compound) | time to full delocalization of GFP-RGS17 from the membrane ([2]; 10 μM compound) [min] | delocalization of RGS17ΔN from the membrane ([2]; 100 μM compound) | time to full delocalization of GFP-RGS17 from the membrane ([2]; 100 μM compound) [min] | IC50 [1] [µM] |
| --- | --- | --- | --- | --- | --- | --- | --- | --- | --- |
| C[n+]1cc2c3c(ccc2c2ccc4cc5c(cc4c21)OCO5)OCO3 [UI-5] | inhibited both RGS-4 and RGS-17 | more selective for RGS17 | 12 | did not form adducts | had cellular activity | 30 | delocalization occurs | 5 | – |
| CC1=C(O)C(=O)C=C2C1=CC=C1[C@@]2(C)CC[C@@]2(C)[C@@H]3C[C@](C)(C(=O)O)CC[C@]3(C)CC[C@]12C [UI-1590] | inhibited both RGS-4 and RGS-17 | more selective for RGS17 | 6.36 | did not form adducts | had cellular activity | 20 | delocalization occurs | 5 | 6 |
| CC(C)=CCC[C@]1(C)C=Cc2c(O)c3c(c(CC=C(C)C)c2O1)O[C@]12C(=C[C@@H]4C[C@H]1C(C)(C)O[C@@]2(C/C=C(/C)C(=O)O)C4=O)C3=O [UI-1907] | – | – | – | – | – | – | not | – | – |
| O=c1c(-c2cc(O)c(O)c(O)c2)coc2cc(O)c(O)c(O)c12 [UI-1956, 5,6,7-trihydroxy-3-(3,4,5-trihydroxyphenyl)-4H-chromen-4-one] | – | selective for RGS17 | 35 | did not form adducts | had cellular activity | 30 | delocalization occurs | 20 | – |
